Experimental data from US11512075B2 (priority 2017, dated 2022).
“Also recorded” adds a separate entry of the source.

Assays:
human KOR [1] = molecular target: T1, human KOR (Homo sapiens, UniProt P41145); assay type: binding
human KOR [2] = molecular target: T1, human KOR; assay type: cell-based
[3] = tested on: chloroquine phosphate-induced pruritus in mice; design: species or system C57BL/6J mice; settings: mouse, in vivo

SMILES | affinity for the κ-OR (radioligand competition binding, Ki) (human KOR [1]) | KOR agonist potency (human KOR [2]) | efficacy in G protein signaling (inhibition of cAMP accumulation) (human KOR [2]) | suppression of itch (scratching) response [3]
COC(=O)[C@@H]1C[C@H](OC(C)=O)C(=O)[C@@H]2[C@H]3C[C@@H](c4ccoc4)OC(=O)[C@@H]3CC[C@]21C [20-nor-SalA, 20-nor-salvinorin A] | high affinity | high potency | full agonist | suppressed the itch response; also recorded: similarly effective to SalA and another conventional agonist (U50,488H)
COC(=O)[C@@H]1C[C@H](OC(C)=O)C(=O)[C@H]2[C@@]1(C)CC[C@H]1C(=O)O[C@H](c3ccoc3)C[C@]21C [SalA, salvinorin A, reference compound] |  |  | slightly higher affinity and efficacy | suppressed the itch response
